Measured values from publication PMC11880180, “Theranostic Near-Infrared Monoamine Oxidase Inhibitor (NMI) Protein Binding Interactions with MAOA and Albumin” (Pharmaceutical Research, 2025).

Target: T1, MAOA (monoamine oxidase A) (Homo sapiens, UniProt P21397)
T1 construct: recombinant human MAOA (M7316-1VL)
T1 sequence (P21397 1-527): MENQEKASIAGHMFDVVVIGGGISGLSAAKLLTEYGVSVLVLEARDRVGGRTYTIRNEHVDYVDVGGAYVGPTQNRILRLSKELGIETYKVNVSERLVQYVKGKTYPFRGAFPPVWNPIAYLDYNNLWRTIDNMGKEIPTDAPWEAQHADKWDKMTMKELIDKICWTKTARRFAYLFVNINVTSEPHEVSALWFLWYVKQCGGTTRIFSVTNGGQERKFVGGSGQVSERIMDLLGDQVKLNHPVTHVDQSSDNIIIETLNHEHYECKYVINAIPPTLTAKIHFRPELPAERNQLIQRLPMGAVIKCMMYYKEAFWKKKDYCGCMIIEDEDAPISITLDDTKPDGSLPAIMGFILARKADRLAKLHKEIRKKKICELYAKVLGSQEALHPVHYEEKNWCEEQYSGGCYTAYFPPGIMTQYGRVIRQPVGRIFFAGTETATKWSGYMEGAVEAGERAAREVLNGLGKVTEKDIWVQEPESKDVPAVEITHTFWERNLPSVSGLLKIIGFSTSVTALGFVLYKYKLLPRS
Test: MAO-Glo activity assay with recombinant MAOA (IC50 […] in PEG, […] in PBS); fluorescent SDS-PAGE band of pure protein
Assay type: biochemical

IC50: 1600 nM
Structure (SMILES): C#CCN(CCCNC(=O)CCCCC[N+]1=C(/C=C/C2=C(Cl)C(=C/C=C3\N(CCCCCC(=O)[O-])c4ccccc4C3(C)C)/CCC2)C(C)(C)c2ccccc21)CCCOc1ccc(Cl)cc1Cl [NMI]
